pKi: −log10 of the molar value.
Tests used:
Mus musculus = species on record: Mus musculus; experiment: animal or person; format: functional; conditions: sc
Description: In vivo inhibitory activity for apomorphine induced climbing in mice, sc

D(4) dopamine receptor = target: T1, D(4) dopamine receptor (Homo sapiens, UniProt P21917)
T1 sequence (P21917 whole entry): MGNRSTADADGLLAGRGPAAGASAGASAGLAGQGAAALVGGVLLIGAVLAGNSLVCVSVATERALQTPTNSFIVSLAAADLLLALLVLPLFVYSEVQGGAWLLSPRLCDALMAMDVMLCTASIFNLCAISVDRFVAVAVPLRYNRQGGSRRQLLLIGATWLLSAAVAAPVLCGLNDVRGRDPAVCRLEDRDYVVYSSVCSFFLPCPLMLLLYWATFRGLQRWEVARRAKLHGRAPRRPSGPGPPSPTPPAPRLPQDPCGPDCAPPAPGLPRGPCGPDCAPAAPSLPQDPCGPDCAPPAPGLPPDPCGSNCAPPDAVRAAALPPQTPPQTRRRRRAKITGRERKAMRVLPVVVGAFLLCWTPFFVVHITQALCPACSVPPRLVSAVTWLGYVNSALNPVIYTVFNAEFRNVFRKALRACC
Description: Binding affinity towards human Dopamine receptor D4

D(3) dopamine receptor = D(3) dopamine receptor (Homo sapiens, UniProt P35462)
Chain of D(3) dopamine receptor (P35462 whole entry): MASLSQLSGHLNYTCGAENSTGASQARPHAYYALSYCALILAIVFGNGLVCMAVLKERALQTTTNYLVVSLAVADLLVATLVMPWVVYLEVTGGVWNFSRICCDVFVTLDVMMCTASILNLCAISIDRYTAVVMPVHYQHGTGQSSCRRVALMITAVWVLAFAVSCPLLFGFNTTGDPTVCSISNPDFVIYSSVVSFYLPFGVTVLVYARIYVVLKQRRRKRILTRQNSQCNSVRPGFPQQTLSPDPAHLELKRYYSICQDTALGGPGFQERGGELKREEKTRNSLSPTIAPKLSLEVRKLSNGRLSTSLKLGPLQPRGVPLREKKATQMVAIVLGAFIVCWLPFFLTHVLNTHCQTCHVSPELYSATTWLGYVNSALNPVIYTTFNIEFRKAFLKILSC
Description: Binding affinity against Dopamine receptor D3

[1] = target: T2, Alpha-1A adrenergic receptor (Homo sapiens, UniProt P35348)
T2 sequence (P35348 whole entry): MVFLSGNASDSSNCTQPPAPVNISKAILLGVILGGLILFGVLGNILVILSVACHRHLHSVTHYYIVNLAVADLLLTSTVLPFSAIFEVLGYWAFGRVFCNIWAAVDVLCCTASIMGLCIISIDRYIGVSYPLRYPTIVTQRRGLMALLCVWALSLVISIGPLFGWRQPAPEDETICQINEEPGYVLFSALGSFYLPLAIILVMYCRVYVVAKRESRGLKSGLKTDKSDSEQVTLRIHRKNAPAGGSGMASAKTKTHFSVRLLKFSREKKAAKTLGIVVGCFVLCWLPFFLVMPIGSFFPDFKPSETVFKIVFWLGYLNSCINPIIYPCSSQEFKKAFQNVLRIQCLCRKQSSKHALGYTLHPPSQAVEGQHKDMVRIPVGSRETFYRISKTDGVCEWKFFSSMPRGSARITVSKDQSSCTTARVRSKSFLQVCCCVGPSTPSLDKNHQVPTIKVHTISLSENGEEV
Description: Binding affinity towards recombinant human alpha-1A adrenergic receptor

| Compound | ED50 (Mus musculus) | pKi (D(4) dopamine receptor) | pKi (D(3) dopamine receptor) | pKi [1] |
| --- | --- | --- | --- | --- |
| COc1cc(NC(=O)C2CC2)c(Cl)cc1C(=O)NC1CCN(Cc2ccccc2)C1 (centres undefined) | 0.32 mg/kg | 8.68 | 7.68 |  |
| COCC1=C(C(=O)OC)[C@H](c2ccc(F)c(F)c2)C(C(=O)NCCCN2CCC(c3ccccn3)CC2)C(=O)N1 (some centres undefined) |  |  |  | 9.44 |
